“And” between values parts separate entries of the source, which are not always exact repeats. Identical values can stand only once. Inconclusive results and toxic doses are left out. No stated cut-off is given here; in the data, active means T/C of 150% or more; inactive means T/C below 125%.
Tested on: L1210 leukemia ip in BDF1 mice, survival T/C
Test: NCI In Vivo Anticancer Drug Screen. Data for tumor model L1210 Leukemia (intraperitoneal) in B6D2F1 (BDF1) mice
Details: endpoint: mean survival time, higher = longer survival
Method in brief: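 Transplanted-tumor mice were given test agent; controls received vehicle only. Survival readings from the two groups were divided (treated over control).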

[1] = dose: 100.0 mg/kg/injection, schedule: Q01DX009 (ip), vehicle: Klucel (hydroxypropylcellulose) (HPC)
[2] = dose: 100.0 mg/kg/injection, schedule: Q04DX003 (ip), vehicle: Klucel (hydroxypropylcellulose) (HPC)
[3] = dose: 200.0 mg/kg/injection, schedule: Q01DX009 (ip), vehicle: Klucel (hydroxypropylcellulose) (HPC)
[4] = dose: 200.0 mg/kg/injection, schedule: Q04DX003 (ip), vehicle: Klucel (hydroxypropylcellulose) (HPC)
[5] = dose: 400.0 mg/kg/injection, schedule: Q01DX009 (ip), vehicle: Klucel (hydroxypropylcellulose) (HPC)
[6] = dose: 400.0 mg/kg/injection, schedule: Q04DX003 (ip), vehicle: Klucel (hydroxypropylcellulose) (HPC)
[7] = dose: 50.0 mg/kg/injection, schedule: Q01DX001 (ip), vehicle: carboxymethylcellulose (CMC)
[8] = dose: 100.0 mg/kg/injection, schedule: Q01DX001 (ip), vehicle: carboxymethylcellulose (CMC)
[9] = dose: 200.0 mg/kg/injection, schedule: Q01DX001 (ip), vehicle: carboxymethylcellulose (CMC)
[10] = dose: 400.0 mg/kg/injection, schedule: Q01DX001 (ip), vehicle: carboxymethylcellulose (CMC)
[11] = dose: 100.0 mg/kg/injection, schedule: Q04DX002 (ip), vehicle: Klucel (hydroxypropylcellulose) (HPC)
[12] = dose: 200.0 mg/kg/injection, schedule: Q04DX002 (ip), vehicle: Klucel (hydroxypropylcellulose) (HPC)
[13] = dose: 400.0 mg/kg/injection, schedule: Q04DX002 (ip), vehicle: Klucel (hydroxypropylcellulose) (HPC)
[14] = dose: 100.0 mg/kg/injection, schedule: Q01DX009 (ip), vehicle: saline with Tween-80
[15] = dose: 200.0 mg/kg/injection, schedule: Q01DX009 (ip), vehicle: saline with Tween-80
[16] = dose: 400.0 mg/kg/injection, schedule: Q01DX009 (ip), vehicle: saline with Tween-80

Measured: T/C

CCCCOC(=O)Nc1ccc(N)c(NC(=O)OCCCC)n1
inactive: dose: 100.0 mg/kg/injection, schedule: Q01DX009 (ip), vehicle: gum acacia 88 % of control | dose: 100.0 mg/kg/injection, schedule: Q04DX003 (ip), vehicle: gum acacia 99 % of control | dose: 200.0 mg/kg/injection, schedule: Q01DX009 (ip), vehicle: gum acacia 93 % of control | dose: 200.0 mg/kg/injection, schedule: Q04DX003 (ip), vehicle: gum acacia 99 % of control | dose: 400.0 mg/kg/injection, schedule: Q01DX009 (ip), vehicle: gum acacia 91 % of control | dose: 400.0 mg/kg/injection, schedule: Q04DX003 (ip), vehicle: gum acacia 97 % of control

CC(=O)Oc1ccc(CC(C(=O)O)c2ccccc2)cc1 (centres undefined)
inactive: dose: 100.0 mg/kg/injection, schedule: Q01DX001 (ip), vehicle: saline 107 % of control | [1] 91 % of control | [2] 100 % of control | dose: 200.0 mg/kg/injection, schedule: Q01DX001 (ip), vehicle: saline 101 % of control | [3] 109 % of control | [4] 96 % of control | dose: 400.0 mg/kg/injection, schedule: Q01DX001 (ip), vehicle: saline 113 % of control | [5] 95 % of control | [6] 96 % of control

Nc1ccccc1C(=O)O
inactive: [7] 98 % of control | [8] 91 % of control | dose: 178.0 mg/kg/injection, schedule: Q01DX001 (ip), vehicle: carboxymethylcellulose (CMC) 92 % of control | [9] 91 % of control | dose: 267.0 mg/kg/injection, schedule: Q01DX001 (ip), vehicle: carboxymethylcellulose (CMC) 94 % of control | [10] 92 % of control | dose: 600.0 mg/kg/injection, schedule: Q01DX001 (ip), vehicle: carboxymethylcellulose (CMC) 92 % of control

O=C(Nc1ccc(I)cc1)c1ccc([N+](=O)[O-])cc1
inactive: [11] 99 % of control | [12] 101 % of control | [13] 115 % of control

Cc1nccc2cc3c(cc12)c1ccccc1n3C
inactive: dose: 37.5 mg/kg/injection, schedule: Q04DX003 (ip), vehicle: Klucel (hydroxypropylcellulose) (HPC) 105 % of control | dose: 75.0 mg/kg/injection, schedule: Q04DX003 (ip), vehicle: Klucel (hydroxypropylcellulose) (HPC) 111 % of control | dose: 150.0 mg/kg/injection, schedule: Q04DX003 (ip), vehicle: Klucel (hydroxypropylcellulose) (HPC) 105 % of control | dose: 300.0 mg/kg/injection, schedule: Q04DX003 (ip), vehicle: Klucel (hydroxypropylcellulose) (HPC) 95 % of control

CC1(C(Cl)Cl)C(=O)C=Cc2ccccc21 (centres undefined)
inactive: dose: 100.0 mg/kg/injection, schedule: Q04DX002 (ip), vehicle: saline with Tween-80 95 % of control | dose: 200.0 mg/kg/injection, schedule: Q04DX002 (ip), vehicle: saline with Tween-80 98 % of control | dose: 400.0 mg/kg/injection, schedule: Q04DX002 (ip), vehicle: saline with Tween-80 95 % of control

CC(C)=CCN(CC=C(C)C)CCC(C#N)c1cccc2ccccc12 (centres undefined)
inactive: dose: 50.0 mg/kg/injection, schedule: Q01DX009 (ip), vehicle: Klucel (hydroxypropylcellulose) (HPC) 100 % of control | [1] 88 % of control | [2] 109 % of control | [3] 88 % of control | [4] 90 % of control | [6] 93 % of control

O=C(NC(=S)Nc1ccc(S(=O)(=O)c2ccc(NC(=S)NC(=O)c3ccccc3)cc2)cc1)c1ccccc1
inactive: [1] 102 % of control | [11] 94 % of control | [3] 94 % of control | [12] 94 % of control | [5] 91 % of control | [13] 102 % of control

O=C(c1c(F)c(F)c(F)c(F)c1F)N1CC1
inactive: dose: 25.0 mg/kg/injection, schedule: Q01DX009 (ip), vehicle: water 96 % of control | dose: 50.0 mg/kg/injection, schedule: Q01DX009 (ip), vehicle: water 93 % of control

O=C(Nc1ccc(Nc2ccccc2)cc1)Nc1ccc(F)c(Cl)c1
inactive: [2] 92 % of control | [4] 94 % of control | [6] 94 % of control

COc1ccc(C(C)c2ccccc2)cc1C(C)c1ccccc1 (centres undefined)
inactive: [14] 93 % of control | dose: 100.0 mg/kg/injection, schedule: Q04DX003 (ip), vehicle: saline with Tween-80 98 % of control | [15] 95 % of control | dose: 200.0 mg/kg/injection, schedule: Q04DX003 (ip), vehicle: saline with Tween-80 89 % of control | [16] 88 % of control | dose: 400.0 mg/kg/injection, schedule: Q04DX003 (ip), vehicle: saline with Tween-80 98 % of control

Cc1ccc2c3c(c(=O)oc2c1)CCCC3
inactive: [7] 96 % of control | [8] 112 % of control | [9] 100 % of control | [10] 108 % of control

C/C=C/C(=O)Nc1cccc(O)c1
inactive: [14] 93 % of control | [15] 91 % of control | [16] 93 % of control

CNC(=N)c1ccc(NC(=N)c2ccc(NC(=O)c3ccc(C(=O)Nc4ccc(C(=N)Nc5ccc(C(=N)NC)cc5)cc4)cc3)cc2)cc1
inactive: dose: 6.25 mg/kg/injection, schedule: Q01DX Z (ip), vehicle: carboxymethylcellulose (CMC) 124 % of control | dose: 100.0 mg/kg/injection, schedule: Q01DX Z (ip), vehicle: carboxymethylcellulose (CMC) 119 % of control

COc1ccc2c(c1OC(C)=O)-c1cc(OC(C)=O)cc3c1C(C2)N(C)CC3 (centres undefined)
inactive: dose: 25.0 mg/kg/injection, schedule: Q04DX003 (ip), vehicle: DMSO 93 % of control | dose: 50.0 mg/kg/injection, schedule: Q04DX003 (ip), vehicle: DMSO 95 % of control | dose: 100.0 mg/kg/injection, schedule: Q04DX003 (ip), vehicle: DMSO 106 % of control

O=C(Nc1ccc2ccccc2c1)Nc1ccccc1F
inactive: [1] 93 % of control | [3] 104 % of control | [5] 93 % of control

Br/C=C/C[N+]12CN3CN(CN(C3)C1)C2
inactive: dose: 12.5 mg/kg/injection, schedule: Q01DX009 (ip), vehicle: saline 95 % of control | dose: 12.5 mg/kg/injection, schedule: Q04DX003 (ip), vehicle: saline 101 % of control | dose: 25.0 mg/kg/injection, schedule: Q01DX009 (ip), vehicle: saline 101 % of control | dose: 25.0 mg/kg/injection, schedule: Q04DX003 (ip), vehicle: saline 102 % of control | dose: 50.0 mg/kg/injection, schedule: Q01DX009 (ip), vehicle: saline 96 % of control | dose: 50.0 mg/kg/injection, schedule: Q04DX003 (ip), vehicle: saline 98 % of control

Cc1cc(CN(C)C)cc(C(C)C)c1O
inactive: dose: 12.5 mg/kg/injection, schedule: Q01DX009 (ip), vehicle: saline with Tween-80 96 % of control | dose: 25.0 mg/kg/injection, schedule: Q01DX009 (ip), vehicle: saline with Tween-80 97 % of control

COC(=O)C(NC(C)=O)C(=O)OC
inactive: [1] 98 % of control | [2] 90 % of control | [3] 104 % of control | [4] 98 % of control | [5] 96 % of control | [6] 106 % of control

O=C(/C=C(\CBr)c1ccc(-c2ccccc2)cc1)c1ccccc1
inactive: dose: 50.0 mg/kg/injection, schedule: Q01DX001 (ip), vehicle: saline with Tween-80 92 % of control | dose: 100.0 mg/kg/injection, schedule: Q01DX001 (ip), vehicle: saline with Tween-80 87 % of control and 89 % of control | dose: 200.0 mg/kg/injection, schedule: Q01DX001 (ip), vehicle: saline with Tween-80 91 % of control | dose: 400.0 mg/kg/injection, schedule: Q01DX001 (ip), vehicle: saline with Tween-80 94 % of control

COc1ccc(C=O)c(Cl)c1OC
inactive: [1] 94 % of control | dose: 100.0 mg/kg/injection, schedule: Q04DX003 (ip), vehicle: saline 92 % of control | [3] 94 % of control | dose: 200.0 mg/kg/injection, schedule: Q04DX003 (ip), vehicle: saline 108 % of control | dose: 400.0 mg/kg/injection, schedule: Q04DX003 (ip), vehicle: saline 98 % of control

O=C(CC(NC(=O)OCc1ccccc1)C(=O)OCc1ccccc1)OCc1ccccc1 (centres undefined)
inactive: [3] 88 % of control | [5] 89 % of control

COCCCNCC(=O)N1CCN(C(=O)CNCCCOC)CC1
inactive: [7] 92 % of control | [8] 92 % of control | [9] 92 % of control | [10] 95 % of control

From PubChem BioAssay AID248 (DTP/NCI, 2004)
